Data published in patent publication US6150359A, “Naphthyridinones for inhibiting protein tyrosine kinase and cell cycle kinase mediated cellular proliferation” (Warner-Lambert Company, priority 2000, dated 2000).

Tests used:
[1] = target: T1, FGFr (human FGF-1 (flg) receptor tyrosine kinase) (Homo sapiens, UniProt P11362); experiment: FGFr tyrosine kinase assay, 32P incorporation into glutamate-tyrosine copolymer; type: biochemical; conditions: 50 μM ATP; read-out: FGFr IC50
T1 construct: PCR primers are designed to amplify a fragment of DNA that codes for the intracellular tyrosine kinase domain; made in house; host or cells: Sf9 insect cells (baculovirus), cell lysate
T1 sequence (P11362 478-767 limits assumed): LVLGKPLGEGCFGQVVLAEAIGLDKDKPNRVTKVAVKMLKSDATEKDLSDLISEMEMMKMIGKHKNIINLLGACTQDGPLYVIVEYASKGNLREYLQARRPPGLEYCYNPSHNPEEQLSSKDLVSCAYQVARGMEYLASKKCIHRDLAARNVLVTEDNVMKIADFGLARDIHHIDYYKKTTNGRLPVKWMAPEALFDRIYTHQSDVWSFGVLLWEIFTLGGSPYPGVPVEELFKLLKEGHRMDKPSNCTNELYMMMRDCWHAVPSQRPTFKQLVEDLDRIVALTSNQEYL
Protocol: (§1) Platelet Derived Growth Factor Receptor (PDGFr) and Fibroblast Growth Factor Receptor (FGFr). Full length cDNAs for the mouse PDGF-β and human FGF-1 (flg) receptor tyrosine kinases were obtained from J. Escobedo and are prepared as described in J. Biol. Chem., 1991;262:1482-1487. PCR primers are designed to amplify a fragment of DNA that codes for the intracellular tyrosine kinase domain. The fragment is melded into a baculovirus vector, cotransfected with AcMNPV DNA, and the recombinant virus isolated. SF9 insect cells are infected with the virus to overexpress the protein, and the cell lysate is used for the assay.
(§2) PDGFr and FGFr. […] Briefly, to each well is added 82.5 μL of incubation buffer containing 25 mM Hepes (pH 7.0), 150 mM NaCl, 0.1% Triton X-100, 0.2 mM PMSF, 0.2 mM sodium vanadate, 10 mM manganese chloride, and 750 μg/mL of poly (4:1) glutamate-tyrosine followed by 2.5 μL of inhibitor and 5 μL of enzyme lysate (7.5 μg/μL FGFR-TK or 6.0 μg/μL PDGFR-TK) to initiate the reaction. Following a 10 minute incubation at 25° C., 10 μL of [γ^32 P]ATP (0.4 μCi plus 50 μM ATP) is added to each well, and samples are incubated for an additional 10 minutes at 25° C. The reaction is terminated by the addition of 100 μL of 30% trichloroacetic acid (TCA) containing 20 mM sodium pyrophosphate and precipitation of material onto glass fiber filter mats (Wallac). […] Nonspecific activity is defined as radioactivity retained on the filters following incubation of samples with buffer alone; (no enzyme). Specific enzymatic activity is defined as total activity (enzyme plus buffer) minus nonspecific activity.

[2] = target: T2, PDGFr (mouse PDGF-β receptor tyrosine kinase) (Mus musculus, UniProt P05622); experiment: PDGFr tyrosine kinase assay, 32P incorporation into glutamate-tyrosine copolymer; type: biochemical; conditions: 50 μM ATP
T2 construct: PCR primers are designed to amplify a fragment of DNA that codes for the intracellular tyrosine kinase domain; made in house; host or cells: Sf9 insect cells (baculovirus), cell lysate
T2 sequence (P05622 599-961 limits assumed): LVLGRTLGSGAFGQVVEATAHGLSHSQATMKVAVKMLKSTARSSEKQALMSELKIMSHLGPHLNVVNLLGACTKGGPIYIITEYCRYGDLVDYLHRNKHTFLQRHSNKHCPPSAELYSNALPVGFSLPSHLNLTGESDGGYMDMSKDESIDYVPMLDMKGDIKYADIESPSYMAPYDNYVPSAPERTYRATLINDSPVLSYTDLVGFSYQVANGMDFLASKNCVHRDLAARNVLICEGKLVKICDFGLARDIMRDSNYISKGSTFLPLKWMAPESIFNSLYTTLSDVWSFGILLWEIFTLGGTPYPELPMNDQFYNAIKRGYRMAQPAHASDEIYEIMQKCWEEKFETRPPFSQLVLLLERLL
Protocol: as §1, §2

c-Src = target: T3, c-Src (Homo sapiens, UniProt P12931); experiment: c-Src kinase assay, 32P incorporation into polyglutamate-tyrosine; type: biochemical; conditions: 5 μM ATP
T3 construct: made in house; host or cells: baculovirus infected insect cells
T3 sequence (P12931 whole entry, species assumed): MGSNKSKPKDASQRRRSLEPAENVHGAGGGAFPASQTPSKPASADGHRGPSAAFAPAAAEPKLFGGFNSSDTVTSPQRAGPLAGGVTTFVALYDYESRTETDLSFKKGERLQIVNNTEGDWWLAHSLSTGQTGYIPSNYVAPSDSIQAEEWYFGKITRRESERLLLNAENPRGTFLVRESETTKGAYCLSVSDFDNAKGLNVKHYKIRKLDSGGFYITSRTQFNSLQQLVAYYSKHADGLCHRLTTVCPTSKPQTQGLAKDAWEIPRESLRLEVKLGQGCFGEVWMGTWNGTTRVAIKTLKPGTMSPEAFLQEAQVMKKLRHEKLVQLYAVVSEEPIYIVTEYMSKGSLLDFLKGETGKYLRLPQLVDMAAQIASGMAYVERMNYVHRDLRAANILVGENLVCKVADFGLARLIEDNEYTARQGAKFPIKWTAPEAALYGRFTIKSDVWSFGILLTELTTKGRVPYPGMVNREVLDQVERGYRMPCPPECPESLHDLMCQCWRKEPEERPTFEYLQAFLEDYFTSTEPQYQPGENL
Protocol: Other Kinases. c-Src kinase is purified from baculovirus infected insect cell lysates using an antipeptide monoclonal antibody directed against the N-terminal 2-17 amino acids as described previously by Fry, et al., Anticancer Drug Design, 1994;9:331-351. Protein kinase C (PKC.) is obtained as a rat brain preparation from Promega.
c-Src. The antibody, covalently linked to 0.65-μm latex beads, is added to a suspension of insect cell lysis buffer comprised of 150 mM NaCl, 50 mM Tris pH 7.5, 1 mM DTT, 1% NP-40, 2 mM EGTA, 1 mM sodium vanadate, 1 mM PMSF, 1 μg/mL each of leupeptin, pepstatin, and aprotinin. Insect cell lysate containing the c-Src protein is incubated with these beads for 3 to 4 hours at 4° C. with rotation. At the end of the lysate incubation, the beads are rinsed three times in lysis buffer, resuspended in lysis buffer containing 10% glycerol, and frozen. These latex beads are thawed, rinsed three times in assay buffer which is comprised of 40 mM tris pH 7.5, 5 mM magnesium chloride, and suspended in the same buffer. In a Millipore 96-well plate with a 0.65 μm polyvinylidine membrane bottom are added the reaction components: 10-μL c-Src beads, 10 μL of 2.5 mg/mL polyglutamate-tyrosine substrate, 5 μM ATP containing 0.2 μCi labeled ^32 P-ATP, 5 μL DMSO containing inhibitors or as a solvent control, and buffer to make the final volume 125 μL. The reaction is started at room temperature by addition of the ATP and quenched 10 minutes later by the addition of 125 μL of 30% TCA, 0.1 M sodium pyrophosphate for 15 minutes on ice. The plate is then filtered and the wells washed with two 250-μL aliquots of 15% TCA, 0.1 M pyrophosphate. The filters are punched, counted in a liquid scintillation counter, and the data examined for inhibitory activity in comparison to a known inhibitor such as erbstatin. The method is described more fully in J. Med. Chem., 1994;37:598-609.

cdk4/cyclinD = cdk4/cyclinD (Homo sapiens, UniProt P11802); experiment: Cyclin-Dependent Kinase 4 (cdk4/cyclinD) Assay; type: biochemical; conditions: 25 μM ATP, retinoblastoma substrate
Chain of cdk4/cyclinD (P11802 whole entry, species assumed): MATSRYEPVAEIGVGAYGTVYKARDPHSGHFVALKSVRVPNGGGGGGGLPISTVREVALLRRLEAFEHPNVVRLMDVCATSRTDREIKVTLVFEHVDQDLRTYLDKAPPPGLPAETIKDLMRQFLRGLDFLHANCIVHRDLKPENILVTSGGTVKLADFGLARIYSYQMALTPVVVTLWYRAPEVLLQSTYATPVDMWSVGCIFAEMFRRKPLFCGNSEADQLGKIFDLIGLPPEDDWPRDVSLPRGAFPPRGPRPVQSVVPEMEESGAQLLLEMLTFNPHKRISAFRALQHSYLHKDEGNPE
Chain of cdk4/cyclinD (P24385 whole entry partner, species assumed): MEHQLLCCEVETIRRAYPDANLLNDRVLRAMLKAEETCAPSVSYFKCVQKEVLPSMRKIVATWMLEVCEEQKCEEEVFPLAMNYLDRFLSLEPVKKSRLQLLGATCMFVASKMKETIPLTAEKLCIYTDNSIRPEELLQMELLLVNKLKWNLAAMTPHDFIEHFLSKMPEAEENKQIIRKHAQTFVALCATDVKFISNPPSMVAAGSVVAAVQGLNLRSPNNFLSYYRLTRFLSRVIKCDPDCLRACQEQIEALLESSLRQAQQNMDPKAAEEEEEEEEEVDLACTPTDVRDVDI
Protocol: Cyclin-Dependent Kinase 4 (cdk4/cyclinD) Assay
Enzyme assays for IC50 determinations and kinetic evaluation were performed in 96-well filter plates (Millipore MADVN6550). The total volume was 0.1 mL containing a final concentration of 20 mM TRIS (tris[hydroxymethyl]aminomethane), at pH 7.4, 50 mM NaCl, 1 mM dithiothreitol, 10 mM MgCl2, 25 μM ATP containing 0.25 μCi of [^32 P]ATP, 20 ng of cdk4/cyclinD, 1 μg of retinoblastoma, and appropriate dilutions of a compound of the present invention. All components except the ATP were added to the wells, and the plate was placed on a plate mixer for 2 minutes. The reaction was started by adding [^32 P]ATP and the plate was incubated at 25° C. for 15 minutes. The reaction was terminated by addition of 0.1 mL of 20% trichloroacetic acid (TCA). The plate was kept at 4° C. for at least 1 hour to allow the substrate to precipitate. The wells were then washed 5 times with 0.2 mL of 10% TCA and ^32 P incorporation was determined with a beta plate counter (Wallace Inc., Gaithersburg, Md.).

cdk2/cyclinE = cdk2/cyclinE (Homo sapiens, UniProt P24941); experiment: Cyclin-Dependent Kinase Assay, cdk2/cyclinE; type: biochemical; conditions: retinoblastoma substrate
Protocol: (§3) Cyclin-Dependent Kinase Assays (cdk2/cyclinE, cdk2/cyclinA, cdkl/cyclinB)
(§4) All components except the ATP were added to the wells, and the plate was placed on a plate mixer for 2 minutes. The reaction was begun by addition of [^32 P]ATP, and the plate was incubated at 25° C. for 15 minutes. The reaction was terminated by addition of 0.1 mL of 20% TCA. The plate was kept at 4° C. for least 1 hour to allow the substrate to precipitate. The wells were then washed 5 times with 0.2 mL of 10% TCA and ^32 P incorporation determined with a beta plate counter (Wallace Inc., Gaithersburg, Md.).

insulin receptor (INSr) = target: T4, insulin receptor (INSr) (Homo sapiens, UniProt P06213); experiment: Insulin receptor (INSr) kinase assay; type: biochemical; conditions: 10 mM manganese chloride
T4 construct: An assay using the intracellular kinase domains of insulin receptor (INSr)
T4 sequence (P06213 1023-1298 limits assumed, species assumed): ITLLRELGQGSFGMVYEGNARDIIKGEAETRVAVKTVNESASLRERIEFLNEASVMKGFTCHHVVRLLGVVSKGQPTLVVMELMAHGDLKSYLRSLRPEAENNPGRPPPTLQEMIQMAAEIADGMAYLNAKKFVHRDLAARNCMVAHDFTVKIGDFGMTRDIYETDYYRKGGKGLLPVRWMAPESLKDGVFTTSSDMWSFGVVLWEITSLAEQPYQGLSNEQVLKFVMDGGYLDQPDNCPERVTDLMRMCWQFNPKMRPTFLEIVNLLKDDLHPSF
Protocol: EGFr. Enzyme assays for IC50 determinations are performed in 96-well filter plates (Millipore MADVN6550). The total volume is 0.1 mL containing 20 mM Hepes, pH 7.4, 50 μM sodium vanadate, 40 mM magnesium chloride, 10 μM ATP containing 0.5 μCi of [^32 P]ATP, 20 μg of polyglutamic acid/tyrosine (Sigma Chemical Co., St. Louis, Mo.), 10 ng of EGF receptor tyrosine kinase and appropriate dilutions of inhibitor. All components except the ATP are added to the well, and the plate is incubated with shaking for 10 minutes at 25° C. The reaction is started by adding [^32 P]ATP, and the plate is incubated at 25° C. for 10 minutes. The reaction is terminated by addition of 0.1 mL of 20% trichloroacetic acid (TCA). The plate is kept at 4° C. for at least 15 minutes to allow the substrate to precipitate. The wells are then washed five times with 0.2 mL of 10% TCA, and ^32 P incorporation is determined with a Wallac beta plate counter.
Other Kinases. An assay using the intracellular kinase domains of insulin receptor (INSr) is performed as described for the EGF receptor except that 10 mM manganese chloride is included in the reaction. The PKC assay is performed as previously described by Martiny-Baron, et al., J. Biol. Chem., 1993;268:9194-9197.

cdk2/cyclinA = cdk2/cyclinA (Homo sapiens, UniProt P24941); experiment: Cyclin-Dependent Kinase Assay, cdk2/cyclinA; type: biochemical; conditions: 12 mM ATP, retinoblastoma substrate
Protocol: as §3, §4

cdk1/cyclinB = cdk1/cyclinB (Homo sapiens, UniProt P06493); experiment: Cyclin-Dependent Kinase Assay, cdk1/cyclinB; type: biochemical; conditions: 12 mM ATP, retinoblastoma substrate
Chain of cdk1/cyclinB (P06493 whole entry, species assumed): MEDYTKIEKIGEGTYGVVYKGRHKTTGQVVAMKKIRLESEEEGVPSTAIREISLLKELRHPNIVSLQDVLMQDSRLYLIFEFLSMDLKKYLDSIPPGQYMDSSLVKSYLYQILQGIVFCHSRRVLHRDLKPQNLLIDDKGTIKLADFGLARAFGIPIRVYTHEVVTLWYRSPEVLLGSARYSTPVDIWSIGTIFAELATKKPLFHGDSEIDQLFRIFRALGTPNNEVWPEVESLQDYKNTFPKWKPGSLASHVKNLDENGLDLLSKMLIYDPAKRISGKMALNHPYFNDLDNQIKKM
Chain of cdk1/cyclinB (P14635 whole entry partner, species assumed): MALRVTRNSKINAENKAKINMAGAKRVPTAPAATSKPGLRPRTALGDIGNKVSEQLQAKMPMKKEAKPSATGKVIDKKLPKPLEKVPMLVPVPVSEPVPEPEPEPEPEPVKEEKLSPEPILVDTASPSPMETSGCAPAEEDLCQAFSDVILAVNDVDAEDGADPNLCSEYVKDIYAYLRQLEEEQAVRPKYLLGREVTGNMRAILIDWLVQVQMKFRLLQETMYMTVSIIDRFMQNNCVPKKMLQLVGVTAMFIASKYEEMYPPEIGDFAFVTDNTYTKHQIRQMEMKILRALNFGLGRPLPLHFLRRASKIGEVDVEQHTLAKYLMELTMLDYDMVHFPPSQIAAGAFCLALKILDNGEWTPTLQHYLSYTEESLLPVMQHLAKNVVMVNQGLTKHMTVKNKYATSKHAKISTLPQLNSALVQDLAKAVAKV
Protocol: as §3, §4

human tumor cell lines = conditions: approximately 60 NCI human tumor cell lines; cited from earlier work
cdk2 = conditions: cited from earlier work
cdk4 = conditions: cited from earlier work
[3] = tested on: breast and lung cancer cells; conditions: several types of breast and lung cancer cells; cited from earlier work

Row | IC50 [1] | IC50 [2] | IC50 (c-Src) | IC50 (cdk4/cyclinD) | IC50 (cdk2/cyclinE) | IC50 (insulin receptor (INSr)) | IC50 (cdk2/cyclinA) | IC50 (cdk1/cyclinB) | Structure (SMILES) | inhibition of proliferation of human tumor cell lines (human tumor cell lines) | inhibition of cdk2 (cdk2) | inhibition of cdk4 (cdk4) | inhibition of breast and lung cancer cells [3]
1 |  |  | > 50 µM |  |  | > 50 µM |  |  | CN(C)c1cc2c(cn1)cc(-c1c(Cl)cccc1Cl)c(=O)n2C [Example C, 3-(2,6-dichlorophenyl)-7-dimethylamino-1-methyl-1H -[1,6]naphthyridin-2-one] |  |  |  | 
2 | 17 µM | > 50 µM | > 50 µM | 4.2 µM | 1.1 µM |  | 0.88 µM | 1.9 µM | CCn1c(=O)ccc2cnc(Nc3ccccc3)cc21 [Example W, 1-ethyl-7-phenylamino-1H-[1,6]naphthyridin-2-one] |  |  |  | 
3 | 10.4 µM | 5 to 50 µM | > 50 µM | 2.6 µM | 1.3 µM |  | 0.83 µM | 1.5 µM | CCn1c(=O)ccc2cnc(Nc3ccc(OC)cc3)cc21 [Example X, 1-ethyl-7-(4-methoxyphenylamino)-1H-[1,6]naphthyridin-2-one] |  |  |  | 
4 | 1.4 µM | 5.6 µM | 11.4 µM | 0.35 µM | 5.8 µM |  | 3.5 µM | 7.4 µM | CCn1c(=O)ccc2cnc(Nc3ccc(N4CCN(C)CC4)cc3)cc21 [Example Y, 1-ethyl-7-[4-(4-methylpiperazin-1-yl)phenylamino]-1H-[1,6]naphthyridin-2-one] |  |  |  | 
5 | 5.7 µM | > 50 µM | 31 µM | 1.35 µM | 3 µM |  | 1.4 µM | 4 µM | CCn1c(=O)ccc2cnc(Nc3ccc(N4CCOCC4)cc3)cc21 [Example Z, 1-ethyl-7-(4-(morpholin-4-yl)phenylamino)-1H -[1,6]naphthyridin-2-one] |  |  |  | 

The remaining lines, values behind:

Row | Structure (SMILES) | IC50 [1] | IC50 [2] | IC50 (c-Src) | IC50 (cdk4/cyclinD) | IC50 (cdk2/cyclinE) | IC50 (insulin receptor (INSr)) | IC50 (cdk2/cyclinA) | IC50 (cdk1/cyclinB) | inhibition of proliferation of human tumor cell lines (human tumor cell lines) | inhibition of cdk2 (cdk2) | inhibition of cdk4 (cdk4) | inhibition of breast and lung cancer cells [3]
6 | CCn1c(=O)ccc2cnc(Nc3ccc(N4CCCCC4)cc3)cc21 [Example AA, 1-ethyl-7-(4-(piperidin-1-yl)phenylamino)-1H -[1,6]naphthyridin-2-one] | 12.4 µM | > 50 µM | < 50 µM | 1.5 µM | 5 µM |  |  |  |  |  |  | 
7 | Cn1cnc2c(NCc3ccccc3)nc(NCCO)nc21 [Olomoucine, 2-(hydroxyethylamine)-6-benzylamine-9-methylpurine] |  |  |  |  |  |  |  |  | shown to inhibit proliferation of approximately 60 different human tumor cell lines | potent inhibitor of cdk2 and cdk5 |  | 
8 | CN1CC[C@H](c2c(O)cc(O)c3c(=O)cc(-c4ccccc4Cl)oc23)[C@H](O)C1 [flavopiridol] |  |  |  |  |  |  |  |  |  | shown to inhibit cdk2 and cdk4 | shown to inhibit cdk2 and cdk4 | potent inhibitor of several types of breast and lung cancer cells
